The term EC50 denotes the midpoint of the concentration-response curve. As usually defined, the solubility is the concentration that dissolves in the medium under given conditions.

Series [1] has as its target T1, human TRPM8 receptor expressed in transfected 293H cells (Homo sapiens, UniProt Q7Z2W7).
T1 construct: expressed in transfected cells; host or cells: 293H cells
The experiment in a line: TRPM8 Human Transient Potential Ion Channel Cell Based Agonist Calcium Flux Assay (FLIPR). Conditions: Ca2+ mobilization, fluorometric detection, 293H cells; response relative to 3 μM icilin; read-out: TRPM8 agonist EC50. From the text:
This example discloses results from TRPM8 Human Transient Potential Ion Channel Cell Based Agonist Calcium Flux Assay. Evaluation of the agonist activity of compounds at the human TRPM8 receptor expressed in transfected 293H cells, determined by measuring their effect on cytosolic Ca2+ ion mobilization using a fluorometric detection method.
Protocol: The cells are suspended in DMEM buffer (Invitrogen), then distributed in microplates at a density of 3×10^4 cells/well. The fluorescent probe (Fluo4 Direct, Invitrogen) in HBSS buffer (Invitrogen) complemented with 20 mM Hepes (Invitrogen) (pH 7.4) is then added into each well and equilibrated with the cells for 60 min at 37° C. then 15 min at 22° C. Thereafter, the assay plates are positioned in a microplate reader (CellLux, PerkinElmer) which is used for the addition of the test compound, reference agonist or HBSS buffer (basal control), and the measurements of changes in fluorescence intensity which varies proportionally to the free cytosolic Ca2+ ion concentration. For stimulated control measurements, Icilin at 3 μM is added in separate assay wells. The results are expressed as a percent of the control response to 3 μM icilin. The standard reference agonist is Icilin, which is tested in each experiment at several concentrations to generate a concentration-response curve from which its EC50 value is calculated. (Behrendt, H. J., Germann, T., Gillen, C and Hatt, H. and Jostock, R. (2004), Characterization of the mouse cold-menthol receptor TRPM8 and vanilloid receptor type-1 VR1 using a fluorometric imaging plate reader (FLIPR) assay, Br. J. Pharmacol., 141: 737.)
Data analysis: EC50 values were determined as the concentration of test substance required to produce half-maximal increases in [Ca^2+]. Maximal [Ca^2+] responses were measured as peak fluorescence intensity (FI) minus basal FI, and expressed as percentages of the maximum response to icilin. Data are given as means±s.e.m., unless otherwise stated.
The EC50 values (concentration producing a half-maximal response) and IC50 values (concentration causing a half-maximal inhibition of the control agonist response) were determined by non-linear regression analysis of the concentration-response curves generated with mean replicate values using Hill equation curve fitting:
where Y=response, A=left asymptote of the curve, D=right asymptote of the curve, C=compound concentration, and C50=EC50, and nH=slope factor.

The nature of series [2]: Solubility assay in DI water. In kind it is physicochemical. As to conditions: DI water, thermodynamic from solid, HCl salts, visual, stepwise dilution from 200 mg/mL, sonication and vortex. As to the method: In order to determine the aqueous solubility of the compounds indicated, the HCl salts of the following compounds were incubated at 200 mg/mL in DI water followed by sonication for 60 seconds and then vortex stirring for 60 seconds. If insoluble material was observed, the sample was diluted to 150, 100, 50, 25, or 20 mg/mL until no insoluble material was observed. After each dilution, each sample was sonicated for 60 seconds, vortexed for 60 seconds and let equilibrate with occasional shaking for 30 minutes.

A short description of series [3]: Solution state stability assay. In kind it is physicochemical. Conditions: 50° C.; for % degradation at 28 days: HPLC. As to the method: Compounds were incubated in the buffer media indicated (ingredients for making of PBS buffer and sodium citrate/citric acid buffer were obtained from Sigma-Aldrich, St. Louis, MO, USA). The reactions were conducted at either 50° C. and for 28 days. Samples were collected at specific time points and analyzed for % degradation of the parent compound based on UV/Vis analysis.
Methods: Samples were weighed using a Mettler Toledo XS105 analytical balance (accurate to +/−0.01 mg). Accurate dilutions were made with a P1000, P200, or P20 Gilson Pipetman, or an Eppendorf Maxipettor 1-10 mL pipettor. pH Measurements were made with a Hanna Instruments HI 4222 pH meter and a Hanna instruments HI 1330B micro pH probe. Samples were analyzed via high pressure liquid chromatography using an Agilent series 1100 HPLC instrument with a Grace Alltima column. Chromatograms were manually integrated. Individual chromatograms are assigned an automatic HPLC identification number.
Freshly prepared 1.0 mg/mL solution of each compound listed in Table # was allotted into two-dram clear glass vials. […] The vials were then stored in an oven set to 50° C. At the appropriate time points, the vials were removed from the oven, vortexed for 30 seconds and an aliquot (400 μL) was pipetted into an HPLC vial and quenched with 1% TFA in ACN (400 μL). […] For all samples, aliquots were taken after 28 days. Quenched vials were immediately analyzed via HPLC.

The conditions of series [4]: cited from earlier work.

Each structure is given as a SMILES string. Where only a bound is given, the exact number is not on record here.

T1 sequence (Q7Z2W7 whole entry): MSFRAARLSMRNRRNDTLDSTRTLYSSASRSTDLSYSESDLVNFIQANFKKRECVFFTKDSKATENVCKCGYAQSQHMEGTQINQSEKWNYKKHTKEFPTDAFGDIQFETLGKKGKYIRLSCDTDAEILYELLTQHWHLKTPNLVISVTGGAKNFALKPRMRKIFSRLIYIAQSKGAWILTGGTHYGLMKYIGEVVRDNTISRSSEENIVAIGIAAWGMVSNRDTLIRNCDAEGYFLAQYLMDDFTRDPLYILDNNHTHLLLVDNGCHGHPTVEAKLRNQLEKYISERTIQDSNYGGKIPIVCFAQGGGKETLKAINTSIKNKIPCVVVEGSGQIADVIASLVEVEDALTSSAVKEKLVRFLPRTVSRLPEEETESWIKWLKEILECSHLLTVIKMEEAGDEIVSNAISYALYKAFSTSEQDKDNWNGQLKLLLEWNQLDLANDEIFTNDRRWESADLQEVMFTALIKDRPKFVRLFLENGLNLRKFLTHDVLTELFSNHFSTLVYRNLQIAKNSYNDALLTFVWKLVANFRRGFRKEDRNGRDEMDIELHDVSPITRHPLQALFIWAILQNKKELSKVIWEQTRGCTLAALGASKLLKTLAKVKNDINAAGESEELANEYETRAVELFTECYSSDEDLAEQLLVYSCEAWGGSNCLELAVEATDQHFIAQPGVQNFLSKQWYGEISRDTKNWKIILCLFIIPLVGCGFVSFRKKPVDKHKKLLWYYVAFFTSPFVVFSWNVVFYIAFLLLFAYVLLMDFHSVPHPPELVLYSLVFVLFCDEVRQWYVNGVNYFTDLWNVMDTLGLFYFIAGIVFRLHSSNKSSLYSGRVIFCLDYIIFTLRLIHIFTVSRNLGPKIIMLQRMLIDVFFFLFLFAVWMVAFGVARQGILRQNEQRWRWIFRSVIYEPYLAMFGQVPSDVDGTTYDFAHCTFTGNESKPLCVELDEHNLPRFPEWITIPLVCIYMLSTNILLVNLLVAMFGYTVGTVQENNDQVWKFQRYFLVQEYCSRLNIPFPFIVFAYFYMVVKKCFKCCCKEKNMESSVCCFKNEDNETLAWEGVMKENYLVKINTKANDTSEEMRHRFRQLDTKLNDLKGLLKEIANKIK

For `CC(C)[C@@H]1CC[C@@H](C)C[C@H]1C(=O)NCc1ccc(CN)cc1.Cl` [Compound 4, (1R,2S,5R)-N-(4-(aminomethyl)benzyl)-2-isopropyl-5-methylcyclohexanecarboxamide hydrochloride], the 50% effective concentration (EC50) in series [1] was 100 nM. For the same molecule, in series [2], the solubility at 30 min was ≥ 20 mg/mL. In addition, the “aqueous stability / hydrolysis, comparison in words” value in series [3] (buffer, 28 days) was “greatest aqueous stability”. In addition, the “% degradation at 28 days” value is on record as ~7.1% in series [3] (pH = ~5.0 (0.2 M aqueous sodium citrate/citric acid buffer)) and ~1.7% in series [3] (pH = ~7.4 (1X Phosphate Buffered Saline)).
`CC(C)[C@@H]1CC[C@@H](C)C[C@H]1C(=O)NCc1ccc(C2CCNCC2)cc1.Cl` [Compound 16, (1R,2S,5R)-2-isopropyl-5-methyl-N-(4-(piperidin-4-yl)benzyl)cyclohexanecarboxamide hydrochloride]: in series [1], the EC50 was 345 nM. Besides, the solubility at 30 min in series [2] was ≥ 20 mg/mL.
Consider `CC(C)[C@@H]1CC[C@@H](C)C[C@H]1O` [menthol, (1R,2S,5R)-2-isopropyl-5-methylcyclohexanol], for which, in series [4], the “known aqueous solubility in water” value is on record as ~0.4 mg/mL.

Values taken from patent US20240199564A1, “TRPM8 AGONISTS AS COOLING AGENTS AND FOR THE TREATMENT OF DISEASE” (Concentric Analgesics, Inc., priority 2021, published 2024).
